Tested on: glucocorticoid signaling genes in WSU-DLCL2 cells
Assay: RT2 Glucocorticoid Signaling PCR array
Format: cell-based
Details: WSU cell line, 4 days
Procedure: Gene expression was normalized to array's B2M and fold change compared to DMSO was calculated using the ΔΔCt method.

Structure (SMILES): CCN(c1cc(-c2ccc(CN3CCOCC3)cc2)cc(C(=O)NCc2c(C)cc(C)[nH]c2=O)c1C)C1CCOCC1 [Compound 44]
- AK2 Ct Values: 21.365
- ANXA4 Ct Values: 24.659
- ARID5B Ct Values: 26.126
- BCL6 Ct Values: 20.795
- CEBPB Ct Values: 26.770
- CREB3L4 Ct Values: 24.392
- EHD3 Ct Values: 24.270
- IL6R Ct Values: 33.814
- MT2A Ct Values: 23.499
- NFKBIA Ct Values: 23.807
- PER2 Ct Values: 24.837
- POU2F2 Ct Values: 22.678
- RASA3 Ct Values: 23.208
- RHOB Ct Values: 27.234
- SLC22A5 Ct Values: 26.640
- SNTA1 Ct Values: 24.181
- SPSB1 Ct Values: 26.952
- TNFAIP3 Ct Values: 26.903
- TSC22D3 Ct Values: 25.390
- ZFP36 Ct Values: 25.541
- ZNF2B1 Ct Values: 23.913
- RPLP0 Ct Values (housekeeping gene): 15.681
- HPRT1 ΔCT (B2M) (housekeeping gene, normalized to B2M): 3.108
- AMPD3 ΔCT (B2M) (normalized to B2M): 7.477
- GHRHR ΔCT (B2M) (normalized to B2M): 20.272
- GOT1 ΔCT (B2M) (normalized to B2M): 4.142
- SLC10A6 ΔCT (B2M) (normalized to B2M): 15.999
- SLC19A2 ΔCT (B2M) (normalized to B2M): 6.440
- SLC22A5 ΔCT (B2M) (normalized to B2M): 6.955
- ZNF2B1 ΔCT (B2M) (normalized to B2M): 4.228
- B2M ΔCT (B2M) (normalizer gene, normalized to B2M): 0.000
- BCL6 ΔΔCT (vs DMSO): −0.394
- CREB1 ΔΔCT (vs DMSO): 0.008
- CREB3L4 ΔΔCT (vs DMSO): −0.915
- CREB3 ΔΔCT (vs DMSO): −0.085
- DDIT4 ΔΔCT (vs DMSO): −0.060
- GOT1 ΔΔCT (vs DMSO): 0.708
- HNRPLL ΔΔCT (vs DMSO): −0.037
- IL1RN ΔΔCT (vs DMSO): −4.453
- PDP1 ΔΔCT (vs DMSO): −0.380
- PIK3R1 ΔΔCT (vs DMSO): 0.363
- POU2F2 ΔΔCT (vs DMSO): −0.680
- STAT5A ΔΔCT (vs DMSO): −0.307
- USP54 ΔΔCT (vs DMSO): 0.023
- VLDLR ΔΔCT (vs DMSO): 3.859

Reference: US10463671B2, “Combination therapy for treating cancer” (Epizyme, Inc., priority 2013, dated 2019)
